Consider three compounds from ChEMBL document CHEMBL1201862, “PubChem BioAssay data set” (2004).

Some test systems named below: MDA-MB-435; HOP-92; RPMI-8226; HT-29; SR; SF-539; NCI/ADR-RES; UACC-62; HCT-116; UO-31; SK-MEL-2; NCI-H460; SF-295; Hs-578T; SN12C; DU-145; NCI-H23; HCT-15; SNB-75; NCI-H522.
What all share (test): NCI tumour cell line growth inhibition, 48 h

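Five compound concentrations were applied to cells in 96-well plates for 48 hours; endpoints were derived by simple linear interpolation of the resulting dose-response curve. GI50 marks 50% less growth.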 The source made the active and inactive calls. No stated cut-off is given here; in the data, active = GI50 up to about 1.1 µM and inactive = higher.

`CCCc1cn2c(/C=N/NC(=N)N)c(-c3cc([N+](=O)[O-])c(Cl)cc3Cl)nc2s1`: the GI50 with MDA-MB-435 was 1.8 µM (inactive); in the experiment on HOP-92, 1.69 µM (inactive); with RPMI-8226 it was 1.32 µM (inactive); in the experiment on HT-29 it was 1.22 µM (inactive); with SR, 1.45 µM (inactive); in the experiment on SF-539, 1.88 µM (inactive). Moreover, the GI50 in the experiment with NCI/ADR-RES was 1.99 µM (inactive); in the experiment on UACC-62, 1.77 µM (inactive); in the experiment on HCT-116 it was 1.32 µM (inactive); in the experiment on UO-31, 1.79 µM (inactive); with SK-MEL-2 it was 1.87 µM (inactive); in the experiment on NCI-H460 it was 1.72 µM (inactive). Besides, the GI50 with SF-295 is 1.73 µM (inactive); with Hs-578T it was 1.85 µM (inactive); with SN12C, 1.77 µM (inactive); in the experiment on DU-145, 1.82 µM (inactive); in the experiment with NCI-H23, 1.67 µM (inactive); in the experiment with HCT-15, 1.66 µM. In addition, the GI50 with SNB-75 was 1.71 µM (inactive); in the experiment with NCI-H522 it was 2.18 µM (inactive).

Take `COc1ccc(C(OC(=O)[C@H](O[Si](C)(C)C(C)(C)C)[C@@H](NC(=O)c2ccccc2)c2ccccc2)c2ccc(OC)cc2)cc1`: the GI50 is > 100 µM (inactive) in the experiment with MDA-MB-435; > 100 µM (inactive) in the experiment with HOP-92; < 0.01 µM (active) with RPMI-8226; > 100 µM (inactive) with HT-29; 36.6 µM (inactive) in the experiment on SR; > 100 µM (inactive) in the experiment on SF-539. Besides, the GI50 in the experiment on NCI/ADR-RES, with UACC-62, with HCT-116, in the experiment with UO-31, in the experiment on SK-MEL-2 and with NCI-H460 was > 100 µM (inactive) throughout. The GI50 with SF-295 is 3.75 µM (inactive); in the experiment with Hs-578T it was > 100 µM (inactive); in the experiment on SN12C, > 100 µM (inactive); in the experiment with DU-145, > 100 µM (inactive); in the experiment with NCI-H23 it was > 100 µM (inactive); with HCT-15, more than 100 µM. In addition, the GI50 with SNB-75 and in the experiment on NCI-H522 was > 100 µM (inactive) in each case.

Regarding `N#CC1=C(S)N(C2OC(CO)C(O)C(O)C2O)C(c2ccccc2)=CC1c1cccs1` (stereo not given), the GI50 was 20.3 µM (inactive) in the experiment with MDA-MB-435; 23.3 µM (inactive) in the experiment with HOP-92; 26.3 µM (inactive) in the experiment with RPMI-8226; 17 µM (inactive) in the experiment with HT-29; 23 µM (inactive) in the experiment on SR; 18.6 µM (inactive) in the experiment on SF-539. In addition, the GI50 is > 100 µM (inactive) with NCI/ADR-RES; 18.8 µM (inactive) in the experiment with UACC-62; 26.3 µM (inactive) with HCT-116; 48.8 µM (inactive) with UO-31; 22.5 µM (inactive) in the experiment on SK-MEL-2; 17.7 µM (inactive) in the experiment with NCI-H460. Also, the GI50 with SF-295 is 17.5 µM (inactive); in the experiment with Hs-578T, 23.4 µM (inactive); with SN12C, 14.7 µM (inactive); with DU-145, > 10 µM (inactive); in the experiment on NCI-H23, 28.1 µM (inactive); with HCT-15, 32.7 µM. Further, the figures for the GI50 in the experiment with SNB-75 and in the experiment on NCI-H522 were 20.5 µM (inactive) and 18.1 µM (inactive), respectively.
